This note sets out measurements from the OPERA property sets (Mansouri et al. 2018).

The molecule `C=C(C)C#N` came in with a logP of 0.68.
The figure for `N#CCCCCl` is 0.56.
As for `CCCCCCCC#N`, the log partition coefficient (logP) came to 2.75.
The same measure for `CCC(C)C#N` (stereo unspecified): 1.05.
Consider `CCCC#N`, for which the logP was determined as 0.53.
In turn, `CC(C)CCC#N` returned a logP of 1.54.
`C=CCC#N` came in with a logP of 0.4.
The figure for `N#CCCCl` is 0.18; for `CC(C)C#N` it is 0.46; for `CCCCCC#N` it is 1.66.
The figure for `CCCCCCCCC#N` is 3.12.
